Results published in patent publication US8648105B2, “Diarylthiohydantoin compounds” (The Regents of the University of California, priority 2006, dated 2014).
Entries after “also recorded” stand apart in the source; their conditions may differ.

Experiments:
[1] = tested on: LNCaP hormone sensitive xenograft; assay: LNCaP hormone sensitive xenograft model
Procedure: Each set included 6 mice. The mice were treated with 10 mg/kg per day.

[2] = tested on: hormone refractory LAPC4 xenograft; assay: Hormone refractory LAPC4 xenograft model; assay type: in vivo, mice
Procedure: Compounds of the invention are also tested in another xenograft model of hormone refractory prostate cancer, hormone refractory LAPC4. This model was established from passaging of hormone sensitive prostate cancer in castrated mice, which mimics the clinical progression of prostate cancer (2). […].

[3] = tested on: AR-overexpressed LNCaP xenograft tumors; assay: AR-overexpressed LNCaP xenograft model in castrated SCID mice; assay type: in vivo
Procedure: FIG. 7 is a graph of tumor size. AR overexpressing LNCaP cells were injected in the flanks of castrated SCID mice, subcutaneously. When tumors reached about 100 cubic mm, they were randomized into five groups. Each group had nine animals. […]. The tumors were measured three-dimensionally, width, length and depth, using a caliper.
FIG. 8 depicts experimental results of tumor size. At day 18, the animals were imaged via an optical CCD camera, 3 hours after last dose of treatment. A ROI was drawn over the tumor for luciferase activity measurement in photon/second. The right panels is a representation of the ROIs measurements.
Compounds of the invention are used to examine if the diaryihydantoin derivatives have in vivo effects on hormone refractory prostate cancer. First we examine this compound on xenograft tumors established from AR-overexpressed LNCaP cells. Engineered cells in Matrigel (Collaborative Biomedical) are injected subcutaneously into the flanks of the castrated male SCID mice. Tumor size is measured weekly in three dimensions using calipers. After xenograft tumors established (tumor size at least 40 mm^3), mice with tumors are randomized and treated with different doses of compounds orally once daily. The inhibitory effect on growth of AR-overexpressed LNCaP xenograft model is studied as follows. Mice with established LN-AR xenograft tumors are randomized and treated with indicated compounds orally once daily. Tumor size are measured by caliber.
All animal experiments were performed in compliance with the guidelines of the Animal Research Committee of the University of California at Los Angeles. Animals were bought from Taconic and maintained in a laminar flow tower in a defined flora colony. LNCaP-AR and LNCaP-vector cells were maintained in RPMI medium supplemented with 10% FBS. 10^6 cells in 100 μl of 1:1 Matrigel to RPMI medium were injected subcutaneously into the flanks of intact or castrated male SCID mice. Tumor size was measured weekly in three dimensions (length×width×depth) using calipers. Mice were randomized to treatment groups when tumor size reached approximately 100 mm^3. Drugs were given orally every day at 10 mg/kg and 50 mg/kg. To obtain pharmacodynamic readout, the animals were imaged via an optical CCD camera, 3 hours after last dose of the treatment. A ROI is drawn over the tumor for luciferase activity measurement in photon/second. The right panels were a representation of the ROIs measurements. […]

LogP = assay type: physicochemical
urogenital tract = assay: Luciferase transgenic mice with testosterone pellet, urogenital tract weight and photon emission (FIG. 22); assay type: in vivo; conditions: castrated mice with testosterone pellet, 10 mg/kg per day, 14 days
Procedure: FIG. 22 presents results of an experiment conducted with wild type nontransgenic mice (WT), castrated luciferase transgenic mice (Cast), and non-castrated luciferase transgenic mice (Intact). Data are shown for castrated luciferase transgenic mice treated with an implanted testosterone pellet yielding 12.5 mg per kilogram body weight with a 90 day release period (T/Cast), and data are shown for non-castrated luciferase transgenic mice treated with an implanted testosterone pellet yielding 12.5 mg per kilogram body weight with a 90 day release period (Intact+T). […]. (A) Urogenital tract weight at 14 days. (B) Photon emission rate at 14 days. In all cases, a hormone refractory disease state was not induced.
[…]. Moreover, the higher the dose, the lower the PSA level. […]. The weight and rate of photon emission increased for both intact and castrated mice.

4AR cell line = assay: Luciferase activity in the 4AR cell line; assay type: cell-based; conditions: 1.25 to 10 μmol
Text: (§1) NC4 differs from NC3 only in that an amino group is substituted for a hydroxyl group. […] The effect of NC3 and NC4 on luciferase activity in the 1AR cell line was studied by administering various compounds at concentrations ranging from 1.25 to 10 μmol and observing PSA levels. […] The effect of NC3 and NC4 on luciferase activity in the 4AR cell line was studied by administering various compounds at concentrations ranging from 1.25 to 10 μmol and observing luciferase activity. […] The effect of NC3 and NC4 on PSA levels in the LN/AR cell line was studied by administering various compounds at concentrations ranging from 1.25 to 10 μmol and observing luciferase activity.

AR = target: T1, AR (Homo sapiens, UniProt P10275); assay type: cell-based; set-up: Fold induction, AR response reporter; conditions: LN/AR cell line, 1.25 to 10 μmol
T1 sequence (P10275 1-920): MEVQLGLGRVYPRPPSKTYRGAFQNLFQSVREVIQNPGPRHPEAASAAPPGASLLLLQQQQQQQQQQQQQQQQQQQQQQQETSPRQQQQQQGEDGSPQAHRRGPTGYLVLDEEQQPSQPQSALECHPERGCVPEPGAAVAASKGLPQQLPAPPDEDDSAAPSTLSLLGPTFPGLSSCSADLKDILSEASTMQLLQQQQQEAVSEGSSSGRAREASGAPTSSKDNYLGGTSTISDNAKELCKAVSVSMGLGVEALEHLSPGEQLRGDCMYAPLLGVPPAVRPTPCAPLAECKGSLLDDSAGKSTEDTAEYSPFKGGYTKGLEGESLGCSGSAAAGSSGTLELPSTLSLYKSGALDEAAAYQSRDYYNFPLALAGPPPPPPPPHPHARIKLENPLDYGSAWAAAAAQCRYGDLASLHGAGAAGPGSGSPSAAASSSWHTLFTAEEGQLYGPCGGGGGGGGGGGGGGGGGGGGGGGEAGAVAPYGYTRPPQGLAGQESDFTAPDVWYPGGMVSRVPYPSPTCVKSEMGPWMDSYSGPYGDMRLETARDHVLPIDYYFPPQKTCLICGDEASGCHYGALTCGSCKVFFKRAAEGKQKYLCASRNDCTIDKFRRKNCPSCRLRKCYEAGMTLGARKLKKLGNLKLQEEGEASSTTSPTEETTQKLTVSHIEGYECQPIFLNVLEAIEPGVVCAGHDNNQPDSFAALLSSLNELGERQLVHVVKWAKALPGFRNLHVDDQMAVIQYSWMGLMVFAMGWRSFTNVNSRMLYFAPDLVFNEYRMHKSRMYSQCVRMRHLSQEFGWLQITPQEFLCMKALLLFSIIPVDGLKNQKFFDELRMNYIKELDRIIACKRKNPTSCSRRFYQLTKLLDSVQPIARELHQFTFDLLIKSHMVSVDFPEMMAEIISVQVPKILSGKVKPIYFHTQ
Procedure: It is well established that PSA levels are indicators of AR activities in prostate cancer. […] The LNCaP-AR cells are a line of lymph node carcinoma of prostate cells transduced with a plasmid that makes express androgen receptors. […] After four days incubation, secreted PSA levels were assayed using PSA ELISA kits (American Qualex, San Clemente, Calif.)

1AR cell line = assay: Luciferase activity in the 1AR cell line; assay type: cell-based; conditions: 1.25 to 10 μmol
Text: as §1

Row | Compound | rate of tumor growth (tumor volume) ([1]; 10 mg/kg per day, FIG. 6) | PSA levels ([1]; FIG. 16, relative to vehicle solution) | growth and PSA expression [2] | photon emission associated with luciferase activity ([3]; FIG. 8, day 18, relative to vehicle) | tumor growth / tumor volume ([3]; oral once daily, FIG. 7: 10 or 50 mg/kg, 18 days) | logP (LogP) | urogenital tract weight and photon emission (urogenital tract) | luciferase activity (comparison) (4AR cell line) | PSA level (comparison) (AR) | luciferase activity (comparison) (1AR cell line)
1 | CC(O)(CS(=O)(=O)c1ccc(F)cc1)C(=O)Nc1ccc(C#N)c(C(F)(F)F)c1 (stereo not shown) [Bicalutamide, N-[4-cyano-3-(trifluoromethyl)phenyl]-3-[(4-fluorophenyl)sulfonyl]-2-hydroxy-2-methylpropanamide, reference compound] | slower than mice treated with vehicle solution | stayed the same or increased | did not inhibit growth and PSA expression | remained about the same or increased | did not inhibit growth; also recorded: tumors continued to grow | 2.91 | decrease in weight and photon emission | – | – | –
2 | CC1(C)C(=O)N(c2ccc(C#N)c(C(F)(F)F)c2)C(=S)N1c1ccc(O)cc1 [NC3, 4-[3-(4-hydroxyphenyl)-4,4-dimethyl-5-oxo-2-thioxoimidazolidin-1-yl]-2-trifluoromethylbenzonitrile] | – | – | – | – | – | – | – | less than the luciferase activity upon exposure to NC4 | less than the PSA level upon exposure to NC4 | less than the luciferase activity upon exposure to NC4
